This is an account of results in ChEMBL document CHEMBL3244287, “Adrenergic agents. 4. Substituted phenoxypropanolamine derivatives as potential beta-adrenergic agonists” (J Med Chem, 1977).

Activity calls are given as the source filed them. No cut-off for these calls is given here. A value given as a limit tells only on which side of the number the result lay.

For assay [1], the target named is Beta-1 adrenergic receptor (Cavia porcellus) (UniProt B0FL73). The assay can be described thus: Antagonist activity at beta-1 adrenergic receptor in guinea pig atria assessed as inhibition of isoproterenol-induced increase in rate of contraction of spontaneously beating right atria at 8.4 x 10^-5 M.
Chain of Beta-1 adrenergic receptor (Cavia porcellus) (B0FL73 1-467): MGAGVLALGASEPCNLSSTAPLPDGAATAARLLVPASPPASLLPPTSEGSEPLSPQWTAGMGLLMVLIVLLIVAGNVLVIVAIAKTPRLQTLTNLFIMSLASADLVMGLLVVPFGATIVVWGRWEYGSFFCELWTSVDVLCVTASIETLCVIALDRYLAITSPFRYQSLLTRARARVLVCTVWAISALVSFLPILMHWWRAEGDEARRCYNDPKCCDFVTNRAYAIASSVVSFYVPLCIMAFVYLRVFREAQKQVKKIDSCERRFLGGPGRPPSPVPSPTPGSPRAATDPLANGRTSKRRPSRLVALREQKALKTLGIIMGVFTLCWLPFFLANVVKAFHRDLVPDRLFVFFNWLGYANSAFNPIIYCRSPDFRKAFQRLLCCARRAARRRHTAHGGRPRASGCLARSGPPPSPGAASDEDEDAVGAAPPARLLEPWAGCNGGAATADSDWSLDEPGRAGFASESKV
For assay [2], the target named is Beta-2 adrenergic receptor (Cavia porcellus) (UniProt Q8K4Z4). To be noted: Trachea.
Chain of Beta-2 adrenergic receptor (Cavia porcellus) (UniProt Q8K4Z4) (Q8K4Z4 whole entry, looked up): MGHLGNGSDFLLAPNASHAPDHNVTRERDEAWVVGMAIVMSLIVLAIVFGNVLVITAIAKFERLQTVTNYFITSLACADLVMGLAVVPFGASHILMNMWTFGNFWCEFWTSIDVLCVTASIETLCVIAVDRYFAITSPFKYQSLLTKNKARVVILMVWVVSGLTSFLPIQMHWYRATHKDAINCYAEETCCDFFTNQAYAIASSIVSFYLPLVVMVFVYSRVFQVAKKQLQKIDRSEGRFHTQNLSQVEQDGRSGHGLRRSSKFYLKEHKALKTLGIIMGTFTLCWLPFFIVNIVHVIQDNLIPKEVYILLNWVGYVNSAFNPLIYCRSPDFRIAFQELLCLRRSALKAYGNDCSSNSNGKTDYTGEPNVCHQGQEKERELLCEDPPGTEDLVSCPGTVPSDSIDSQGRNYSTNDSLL
Assay [3] concerns the target Beta-1 adrenergic receptor (Cavia porcellus) (UniProt B0FL73).
Another assay is filed under the species Cavia porcellus. The assay can be described thus: Selectivity ratio of ED50 for beta-2 adrenergic receptor in guinea pig trachea over ED50 for beta-1 adrenergic receptor in guinea pig atria.
For assay [4], the target named is Beta-2 adrenergic receptor (Cavia porcellus) (UniProt Q8K4Z4). Kind of assay: Agonist activity at beta-2 adrenergic receptor in guinea pig trachea assessed as relaxation of spontaneously contracted muscle at 4.8 x 10^-5 M. Details: scale not given: the % may be the effect or the level left.
Assay [5] has as its target Beta-1 adrenergic receptor (Cavia porcellus) (UniProt B0FL73). The assay can be described thus: Agonist activity at beta-1 adrenergic receptor in guinea pig atria assessed as increase in rate of contraction of spontaneously beating right atria at 4.8 x 10^-5 M.
For assay [6] the target is unchanged. Kind of assay: Antagonist activity at beta-1 adrenergic receptor in guinea pig atria assessed as inhibition of isoproterenol-induced increase in rate of contraction of spontaneously beating right atria at 1 x 10^-3 M.
Assay [7] has as its system Canis familiaris. Kind of assay: Reduction of diastolic blood pressure in iv dosed anesthetized dog. Format: functional, organism-based. As to conditions: Canis lupus familiaris; Artery.
Assay [8] deals with Beta-1 adrenergic receptor (Cavia porcellus) (UniProt B0FL73). The assay can be described thus: Ratio of N-tert-butyl-norepinephrine ED50 to compound ED50 for beta-1 adrenergic receptor in guinea pig atria assessed as increase in rate of contraction of spontaneously beating right atria.
For assay [9] the target is unchanged. Kind of assay: Ratio of isoproterenol ED50 to compound ED50 for beta-1 adrenergic receptor in guinea pig atria assessed as increase in rate of contraction of spontaneously beating right atria.
In assay [10] the test system is Beta-2 adrenergic receptor (Cavia porcellus). Kind of assay: Ratio of isoproterenol ED50 to compound ED50 for beta-2 adrenergic receptor in guinea pig trachea assessed as relaxation of spontaneously contracted muscle.
Assay [11] has as its system Canis familiaris. Kind of assay: Reduction of heart rate in iv dosed anesthetized dog in presence of 2 mg/kg of propranolol, iv. Format: functional, organism-based. Details: dose 2 mg/kg. To be noted: Canis lupus familiaris.
For assay [12], the system named is Canis familiaris. Kind of assay: Reduction of diastolic blood pressure in iv dosed anesthetized dog in presence of 2 mg/kg of propranolol, iv. Format: functional, organism-based. Details: dose 2 mg/kg. To be noted: Canis lupus familiaris; Artery.
In assay [13] the target is Beta-1 adrenergic receptor (Cavia porcellus) (UniProt B0FL73). The assay can be described thus: Antagonist activity at beta-1 adrenergic receptor in guinea pig atria assessed as inhibition of isoproterenol-induced increase in rate of contraction of spontaneously beating right atria at 6.3 x 10^-5 M.
For assay [14] the target is unchanged. The assay can be described thus: Antagonist activity at beta-1 adrenergic receptor in guinea pig atria assessed as inhibition of isoproterenol-induced increase in rate of contraction of spontaneously beating right atria at 3 x 10^-7 M.
For assay [15] the target is unchanged. Kind of assay: Agonist activity at beta-1 adrenergic receptor in guinea pig atria assessed as increase in rate of contraction of spontaneously beating right atria at 9 x 10^-5 M.
In assay [16] the target is Beta-2 adrenergic receptor (Cavia porcellus) (UniProt Q8K4Z4). The assay can be described thus: Intrinsic activity at beta-2 adrenergic receptor in guinea pig trachea assessed as relaxation of spontaneously contracted muscle relative to papaverine.

Consider `CC(C)(C)NCC(O)COc1ccc(O)cc1` (centres undefined), for which the inhibition result in assay [1] is “Active”. In assay [2], this compound had an ED50 of 1.3 ×10⁻⁸ M. Besides, in assay [3], the ED25 amounted to 5 ×10⁻⁸ M. The Ratio ED50 in the assay filed under Cavia porcellus is 3.8.
Consider `CC(C)(C)NC[C@H](O)c1ccc(O)c(O)c1`, for which the ED50 in assay [2] amounted to 1.3 nM. The ED25 in [3] stood at 7.1 nM. In addition, the Ratio ED50 in the assay listed under Cavia porcellus is 5.5.
Take `CC(C)NCC(O)c1ccc(O)cc1` (centres undefined): in [2], the ED50 came to 1.1 ×10⁻⁷ M. The compound further showed an ED25 in assay [3] of 7.7 ×10⁻⁸ M. Also, the Ratio ED50 in the assay filed under Cavia porcellus was found to be 0.7.
For the compound `CC(C)(C)NCC(O)COc1ccc(CS(C)(=O)=O)cc1` (centres undefined), the Activity in assay [4] and in [5] was 0% each time. The compound further gave an ED50 in assay [2] of 4.8 ×10⁻⁵ M. Also, the ED25 in [3] is 4.8 ×10⁻⁵ M. Moreover, in [6], the inhibition came to 78%.
Take `CC(C)(C)NCC(O)COc1ccc(O)c(O)c1` (centres undefined): in the assay on Canis familiaris [7], the outcome was Active. Further, the ED50 in [2] was 3.2 ×10⁻¹⁰ M. In addition, the Ratio ED50 in [8] was 650; in [9], 310; in assay [10], 22; in the assay filed under Cavia porcellus, 0.034. The compound further returned an ED25 in assay [3] of 1.1 ×10⁻¹¹ M. Besides, the outcome in the assay with Canis familiaris [11] and in the assay on Canis familiaris [12] was inactive.
Take `CC(C)NCC(O)c1cccc(O)c1` (centres undefined): the ED50 in assay [2] is 4.5 ×10⁻⁸ M. In addition, in [3], the ED25 came to 3.7 ×10⁻⁸ M. For the same compound, the Ratio ED50 in the assay listed under Cavia porcellus is 0.8.
Turning to `CC(C)NCC(O)c1ccc(O)c(O)c1` (centres undefined), in assay [2], the ED50 worked out at 7.1 nM.
Compound `CC(C)(C)NCC(O)COc1cccc(O)c1` (centres undefined) yielded an ED50 in assay [2] of 2.1 ×10⁻⁸ M. Moreover, in assay [13], the inhibition entry is “Active”. This compound came in with an ED25 in assay [3] of 5.4 ×10⁻⁷ M. The Ratio ED50 in the assay listed under Cavia porcellus was found to be 26.
With `CC(C)(C)NCC(O)COc1ccc(O)c(NS(C)(=O)=O)c1` (centres undefined), the ED50 in [2] turned out to be 6.6 nM. The compound further displayed an ED25 in assay [3] of 1200 nM. In addition, the Ratio ED50 in the assay filed under Cavia porcellus stood at 182. In addition, the inhibition in assay [14] was 44%.
In [2], `CC(C)(C)NCC(O)COc1ccc(NS(C)(=O)=O)c(O)c1` (centres undefined) registered an ED50 of 3400 nM. In assay [3], this compound gave an ED25 of 9 ×10⁻⁵ M. Also, the Activity in assay [15] came to 19%. Moreover, the Ratio ED50 in the assay filed under Cavia porcellus was more than 27. Besides, the Intrinsic activity in [16] came to 0.8.
For `CC(C)NCC(O)c1ccc(O)c(NS(C)(=O)=O)c1` (centres undefined), the ED50 in assay [2] amounted to 2.6 ×10⁻⁸ M. Moreover, the ED25 in [3] worked out at 7.6 ×10⁻⁸ M. Further, the Ratio ED50 in the assay filed under Cavia porcellus came to 2.9.
